These results are taken from patent publication US5049570A, “Pyridylphenyl nitrogen heterocycle-substituted carbinols and derivatives thereof with anti-inflammatory activity” (Du Pont Merck Pharmaceutical Company, priority 1990, dated 1991).

The test system of the assay is inflammation induced by tetradecanoyl phorbol acetate (TPA), ears of mice. Kind of assay: TPA model: inhibition of tetradecanoyl phorbol acetate (TPA)-induced ear swelling (edema) in mice. In kind it is in vivo. More on the design: dose or concentration left out as unconfirmed. The note with it: Mus musculus, topical, 4 h, applied to the ears in a vehicle such as acetone, edema measured four hours later, read-out: % inhibition of control swelling. From the text:
One such model is inflammation induced by tetradecanoyl phorbol acetate (TPA), modified from the method of Kuehl et al., Nature, 1977, 265, 170; and Van Arman, Clin. Pharmacol. Ther., 1974, 16, 900. The TPA model mimics many of the inflammatory changes which occur in human diseases such as psoriasis, since elevated levels of inflammatory arachidonic acid metabolites are found and an influx of polymorphonuclear leukocytes is observed.
The test procedure used to evaluate the compounds of formula (I) is as follows: the test compound […] was applied to the ears of mice in an appropriate vehicle, such as acetone, and then TPA, the inflammatory stimulus was applied to the right ear. Four hours later, the edema was measured by removing standard size discs from the ears using a biopsy punch. The weights of the ears were determined, and the suppression of the swelling observed in animals not treated with the test compound was determined.
As to `OC(Cn1ccnc1)(c1ccc(F)cc1)c1ccc(-c2ccncc2)cc1` (centres unmarked) [Example 1, 1-(4-fluorophenyl)-1-[4-(4-pyridyl)phenyl]-2-(1-imidazolyl)ethanol], the inhibition in vivo is 72%.

As to `OC(Cn1ccnc1)(c1ccc(-c2ccccn2)cc1)c1ccc(F)cc1F` (centres unmarked) [Example 2], the inhibition in vivo came to 51%.

As to `OC(Cn1ccnc1)(c1ccc(F)cc1)c1ccc(-c2ccccn2)cc1` (centres unmarked) [Example 3], the inhibition in vivo came to 63%.

Regarding `OC(Cn1ccnc1)(c1ccc(-c2cccnc2)cc1)c1ccc(F)cc1F` (centres unmarked) [Example 4], the inhibition in vivo came to 52%. In the case of `OC(Cn1ccnc1)(c1ccc(-c2ccncc2)cc1)c1ccc(F)cc1F` (centres unmarked) [Example 5, 1-(2,4-difluorophenyl)-1-[4-(4-pyridyl)phenyl]-2-(1-imidazolyl)ethanol] it was 73%; in that of `OC(Cn1ccnc1)(c1ccc(F)cc1)c1cccc(-c2ccccn2)c1` (centres unmarked) [Example 6], 61%. `OC(Cn1ccnc1)(c1ccc(F)cc1)c1cccc(-c2cccnc2)c1` (centres unmarked) [Example 7]: the inhibition in vivo is 64%. Regarding `OC(Cn1ccnc1)(c1ccc(F)cc1)c1cccc(-c2ccncc2)c1` (centres unmarked) [Example 8, 1-(4-fluorophenyl)-1-[3-(4-pyridyl)phenyl]-2-(1-imidazolyl)ethanol], the inhibition in vivo was 69%. The same measure for `OC(Cn1ccnc1)(c1ccccc1)c1ccc(-c2ccncc2)cc1` (centres unmarked) [Example 9]: 46%. `OC(Cn1ccnc1)(c1ccc(-c2ccncc2)cc1)c1ccccc1Cl` (centres unmarked) [Example 10]: the inhibition in vivo stood at 63%.

With `Cc1ccc(C(O)(Cn2ccnc2)c2ccc(-c3ccncc3)cc2)cc1` (centres unmarked) [Example 11, 1-(4-methylphenyl)-1-[4-(4-pyridyl)phenyl]-2-(1-imidazolyl)ethanol], the inhibition in vivo amounted to 62%. As for `COc1ccc(C(O)(Cn2ccnc2)c2ccc(-c3ccncc3)cc2)cc1` (centres unmarked) [Example 12, 1-(4-methoxyphenyl)-1-[4-(4-pyridyl)phenyl]-2-(1-imidazolyl)ethanol], the inhibition in vivo was 74%. The same measure for `OC(Cn1ccnc1)(c1ccc(-c2ccncc2)cc1)c1ccc(C(F)(F)F)cc1` (centres unmarked) [Example 21, 1-(4-trifluoromethylphenyl)-1-[4-(4-pyridyl)phenyl]-2-(1-imidazolyl)ethanol]: 66%. Take `OC(Cn1ccnc1)(c1ccc(Cl)cc1)c1ccc(-c2ccncc2)cc1` (centres unmarked) [Example 22, 1-(4-chlorophenyl)-1-[4-(4-pyridyl)phenyl]-2-(1-imidazolyl)ethanol]: the inhibition in vivo was found to be 79%.
